ChEMBL document CHEMBL1139983, “The anti-androgen effect of ganoderol B isolated from the fruiting body of Ganoderma lucidum” (Bioorg Med Chem, 2007)
Active and inactive are the calls of the source. No cut-off for these calls is given here.

Tests used:
[1] = Inhibition of steroid 5-alpha-reductase activity in Sprague-Dawley rat liver microsomes after 10 mins; design: species or system Microsome
Rattus norvegicus [2] = species: Rattus norvegicus; assay: Inhibition of steroid 5-alpha-reductase activity in Sprague-Dawley rat liver microsomes at 113 uM after 10 mins; settings: Microsome
[3] = molecular target: T1, Androgen receptor (Homo sapiens) (UniProt P10275); assay: Displacement of dihydrotestosterone from human recombinant AR ligand binding domain at 15 uM by fluorescence polarization method
T1 sequence (whole entry): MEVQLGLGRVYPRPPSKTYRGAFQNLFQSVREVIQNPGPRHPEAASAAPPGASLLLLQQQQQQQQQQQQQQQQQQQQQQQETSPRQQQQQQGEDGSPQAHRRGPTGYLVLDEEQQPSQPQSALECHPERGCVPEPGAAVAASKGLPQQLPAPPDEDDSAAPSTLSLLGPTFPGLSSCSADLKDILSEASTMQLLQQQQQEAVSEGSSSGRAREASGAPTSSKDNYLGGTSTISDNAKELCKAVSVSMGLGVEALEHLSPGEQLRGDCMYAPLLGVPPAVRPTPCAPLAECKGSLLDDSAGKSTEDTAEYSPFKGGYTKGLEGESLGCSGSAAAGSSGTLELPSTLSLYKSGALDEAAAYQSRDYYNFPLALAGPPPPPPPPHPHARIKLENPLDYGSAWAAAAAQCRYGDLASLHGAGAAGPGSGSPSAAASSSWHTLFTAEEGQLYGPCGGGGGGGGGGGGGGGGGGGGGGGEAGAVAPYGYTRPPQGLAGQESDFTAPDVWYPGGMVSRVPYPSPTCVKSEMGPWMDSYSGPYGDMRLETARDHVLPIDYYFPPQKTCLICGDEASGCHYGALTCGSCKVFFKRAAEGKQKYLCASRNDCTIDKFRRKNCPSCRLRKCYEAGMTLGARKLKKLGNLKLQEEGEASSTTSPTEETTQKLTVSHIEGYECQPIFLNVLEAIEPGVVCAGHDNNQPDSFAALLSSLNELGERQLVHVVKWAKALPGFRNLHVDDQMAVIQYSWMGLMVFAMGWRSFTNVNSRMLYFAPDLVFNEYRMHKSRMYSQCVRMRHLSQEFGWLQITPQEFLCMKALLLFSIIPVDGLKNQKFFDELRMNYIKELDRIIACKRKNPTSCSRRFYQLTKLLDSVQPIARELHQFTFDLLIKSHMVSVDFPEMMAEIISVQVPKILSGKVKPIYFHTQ

LNCaP [4] = assay: Growth inhibition of human LNCaP cells after 3 days; assay type: functional, cell-based
LNCaP [5] = assay: Growth inhibition of human LNCaP cells in presence of testosterone after 3 days; assay type: functional, cell-based
LNCaP [6] = assay: Growth inhibition of human LNCaP cells in presence of dihydrotestosterone after 3 days; assay type: functional, cell-based
Rattus norvegicus [7] = assay: Inhibition of testosterone induced ventral prostate growth in Sprague-Dawley rat at 0.1 mg/kg/day, po after 7 days; assay type: functional; settings: Prostate gland, 168 h
Rattus norvegicus [8] = assay: Inhibition of testosterone induced ventral prostate growth in Sprague-Dawley rat at 0.001 mg/kg/day, po after 7 days; assay type: functional, Prostate gland; design: scale not given: the % may be the effect or the level left

Row | IC50 [1] [nM] | inhibition (Rattus norvegicus [2]) [%] | Activity [3] [%] | SMILES | Activity (LNCaP [4]) | Activity (LNCaP [5]) | Activity (LNCaP [6]) | inhibition in vivo at 0.1 mg/kg/day (Rattus norvegicus [7]) [%] | Activity (Rattus norvegicus [8]) [%]
1 | 730 | – | – | CC(C)(C)NC(=O)[C@H]1CC[C@H]2[C@@H]3CC[C@H]4NC(=O)C=C[C@]4(C)[C@H]3CC[C@]12C [FINASTERIDE] | – | – | – | – | –
2 | – | 37 | 50 | C/C(=C\CC[C@@H](C)[C@H]1CC[C@@]2(C)C3=CC[C@H]4C(C)(C)[C@@H](O)CC[C@]4(C)C3=CC[C@]12C)CO [GANODEROL B] | inactive | Dose-dependent effect | Dose-dependent effect | 49 | 31
